How the values were obtained:
Assay type in all cases: cell-based
NEAT1 = NEAT1 expression (qRT-PCR) in treated prostate cancer cell lines; settings: for NEAT1 expression: VCaP cells
Method: Cell culture and treatments: LnCaP and PC3 cells were grown in RPMI 1640 (Invitrogen) and supplemented with 10% fetal bovine serum (FBS) and 1% penicillin-streptomycin. RWPE1 cells were grown in Keratinocyte Serum Free Medium (K-SFM), Kit (Gibco, #17005-042). VCaP and DU145 cells were grown in DMEM (Invitrogen) and supplemented with 10% fetal bovine serum (FBS) with 1% penicillin streptomycin. NCI-H660 cells were grown in RPMI 1640 supplemented with 0.005 mg/ml insulin, 0.01 mg/ml transferrin, 30 nM sodium selenite, 10 nM hydrocortisone, 10 nM β-estradiol, 5% FBS, 1% penicillin-streptomycin and an extra 2 mM of L-glutamine (for a final concentration of 4 mM). For cell treatments in several experiments, the inventors used 10-100 nM β-estradiol (Sigma Aldrich), 10 μM Enzalutamide (Astellas), 10 μM bicalutamide (Sigma Aldrich), 1-10 nM R1881 (PE Biosystems), 10-100 nM 4-hydroxy tamoxifen (4OHT) (Sigma Aldrich), 1-10 μM ICI […] (Tocris Bioscience).
RNA isolation, cDNA synthesis and PCR experiments: Total RNA was isolated from frozen prostate tissue samples (for qPCR) and cell lines (for transcriptome sequencing and qPCR) using Trizol (Invitrogen) with DNase I digestion according to manufacturer's instructions. RNA integrity was verified on an Agilent Bioanalyzer 2100 (Agilent Technologies). cDNA was synthesized from total RNA using Superscript III (Invitrogen) and random primers (Invitrogen). Quantitative RT-PCR was performed using Power SYBR Green Mastermix (Applied Biosystems) on an Applied Biosystems 7900 Fast Real Time PCR machine. All primers were designed using Primer 3 and synthesized by Integrated DNA Technologies.
To test this hypothesis in vitro, the inventors evaluated the effect of anti-estrogens and anti-androgens on NEAT1 levels in prostate cancer cell lines.

VCaP cells [1] = assay: Cell invasion assay (CHEMICON kit); settings: E2 (10 nM), 48 hrs
Method: Invasion assay: The CHEMICON cell invasion assay kit (EMD MIlipore) was used for determining the cell invasion. Cells were serum-starved for 48 hours and then seeded at a density of 2×10^5 cells/well in the upper well of the invasion chamber. 500 μl of phenol res free DMEM media supplemented with 8% charcoal stripped serum and 10 nM E2 was added to the lower chamber. After 48-hour incubation, the invaded cells were stained by dipping the inserts in the staining solution for 20 minutes. The stained cells were then dissolved in 10% acetic acid and transferred to a 96-well plate for colorimetric reading of OD at 560 nm.

VCaP cells [2] = assay: Colony-forming assay in NEAT1-overexpressing VCaP cells; settings: NEAT1-overexpressing VCaP cells with vs without E2 (10 nM), 21 days
Method: Soft agar assays were performed in both VCaP and VCaP NEAT1 cells. Colonies were monitored over a period of 21 days. […] These in vitro assays establish an oncogenic role for NEAT1.

NEAT1 promoter = NEAT1 promoter luciferase reporter assay; settings: VCaP cells with ERα expression, -/+ E2 (10 nM) 24 hr
From the text: Luciferase reporter assays: For ERE luciferase assays, VCaP cells were transiently transfected with the (ERE)3-5V40-luc reporter plasmid and/or ERα and/or AR as well as an internal control construct pRL harboring the renilla luciferase gene. VCaP cells were also transfected with empty vector or NEAT1 promoter (1+2) luciferase reporter constructs alone or with ERα as well as an internal control construct pRL harboring renilla luciferase gene. In order to determine the PSMA reporter activity, 293T cells and PC3 cells were co transfected with empty vector or PSMA luc and Renilla-luc reporter genes alone or with NEAT1, NEAT1+ERα, or NEAT1+AR.
[…] At 48 h cells were lysed with passive lysis buffer and luciferase activities were measured using the dual luciferase system (#E1910, Promega) and normalized with renilla luciferase activity.
The inventors inspected our ERα ChIP-seq data in VCaP ERα and NCI-H660 cells and identified two ERα binding sites on the NEAT1 promoter (FIG. 2d). […] ERα recruitment to specific regions of the NEAT1 promoter was independently validated by ERα ChIP in VCaP, VCaP ERα and NCI-H660 cells (FIG. 2e) using specific primers encompassing ERα binding sites in the NEAT1 promoter. […]

[3] = ERα antagonist alone for longer periods
[4] = ERα antagonist in combination with E2 (10 nM)

Row | Molecule | NEAT1 expression (NEAT1; [3]) | NEAT1 expression (NEAT1; [4]) | invasive potential (VCaP cells [1]) | number of colonies (VCaP cells [2]) | NEAT1 transcript levels (NEAT1; panel of prostate cancer cell lines, ERα overexpression and E2 treatment (10 nM), different time points) | NEAT1 promoter activity (NEAT1 promoter)
1 | 4-hydroxy tamoxifen [4OHT] | enhance NEAT1 expression | constrained | – | – | – | –
2 | C[C@]12CC[C@@H]3c4ccc(O)cc4C[C@@H](CCCCCCCCC[S+]([O-])CCCC(F)(F)C(F)(F)F)[C@H]3[C@@H]1CC[C@@H]2O (some centres unmarked) [ICI 182,720] | enhance NEAT1 expression | constrained | – | – | – | –
3 | β-estradiol [E2] | – | – | ligand-dependent modulation of invasive potential | significantly increased the number of colonies | upregulated NEAT1 transcript levels in a time-dependent manner | further enhanced

— US10294476B2, “NEAT1 as a prognostic marker and therapeutic target for prostate cancer” (CORNELL UNIVERSITY, priority 2014, dated 2019)
